Test results published in US5189043A, “Isoquinolone derivatives, their production and use” (Takeda Chemical Industries, Ltd., priority 1989, dated 1993).

Target: T1, HMG-CoA reductase of rat's liver microsome (Rattus norvegicus, UniProt P51639)
T1 construct: from tissue; host or cells: liver microsomes of male Sprague-Dawley rats fed 5% cholestyramine diet for 5 days
T1 sequence (P51639 1-887): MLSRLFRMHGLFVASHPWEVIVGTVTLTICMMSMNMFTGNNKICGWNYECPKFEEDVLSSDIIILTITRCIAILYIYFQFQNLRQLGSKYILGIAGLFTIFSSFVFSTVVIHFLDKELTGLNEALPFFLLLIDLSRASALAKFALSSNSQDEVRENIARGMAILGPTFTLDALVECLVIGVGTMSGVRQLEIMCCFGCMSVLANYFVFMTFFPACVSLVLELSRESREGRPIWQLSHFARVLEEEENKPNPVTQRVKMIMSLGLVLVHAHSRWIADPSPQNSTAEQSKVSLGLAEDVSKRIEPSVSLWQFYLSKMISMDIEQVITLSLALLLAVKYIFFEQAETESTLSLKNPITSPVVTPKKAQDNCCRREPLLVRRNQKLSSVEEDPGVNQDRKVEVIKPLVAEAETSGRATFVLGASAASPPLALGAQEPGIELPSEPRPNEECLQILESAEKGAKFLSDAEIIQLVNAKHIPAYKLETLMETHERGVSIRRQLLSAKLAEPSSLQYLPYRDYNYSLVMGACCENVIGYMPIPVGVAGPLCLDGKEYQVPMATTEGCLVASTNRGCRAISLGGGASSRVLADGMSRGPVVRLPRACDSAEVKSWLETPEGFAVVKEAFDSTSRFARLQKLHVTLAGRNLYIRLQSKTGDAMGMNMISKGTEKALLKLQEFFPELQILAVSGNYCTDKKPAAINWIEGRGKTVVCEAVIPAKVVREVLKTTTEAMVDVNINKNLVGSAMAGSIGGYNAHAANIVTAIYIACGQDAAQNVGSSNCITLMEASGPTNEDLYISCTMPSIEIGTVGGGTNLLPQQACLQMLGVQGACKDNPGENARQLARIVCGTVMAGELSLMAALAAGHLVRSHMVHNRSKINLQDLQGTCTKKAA
Assay: Inhibitory action for HMG-CoA reductase of rat's liver microsome
Format: biochemical, male Sprague-Dawley rats
Conditions: at 10-^6 M, rat liver microsome (cholestyramine-fed), d,l-[3-^14 C]-HMG-CoA 0.5 mM, NADPH 20 mM, 37° C. 30 minutes; for inhibition at 1 µM: 0.5 h
Experimental: Inhibitory action for HMG-CoA reductase of rat's liver microsome
5% cholestyramine diet was fed to male Sprague-Dawley rats (300-400 g of body weight) for 5 days. Activity for HMG-CoA reductase of liver microsome was measured by a variant of the method of Shapiro et al [Biochem. Biophys. Acta 370, 36(1974)]. In this method, the enzyme activity is determined by measuring the formation of ^14 C-mevalonate from a substrate [3^14 C]-HMG-CoA in the presence of NADPH. ^14 C-Mevalonate is converted into its lactone which can be isolated by silica gel thin layer chromatography developing with benzene: acetone (50:50).
In order to measure inhibitory action for HMG-CoA reductase, test compound was dissolved in dimethyl sulfoxide and the solution was diluted with a buffer solution (100 mM phosphate buffer, 20 mM EDTA.2Na, […] dithioethritol).
The resulting mixture was incubated with microsome (120 μg protein) at 30° C. for 15 minutes, and further incubated at 37° C. for 30 minutes after addition of d,l-[3-^14 C]-HMG-CoA (0.5 mM, 5000 dpm/nmol) and NADPH (20 mM).

Structure (SMILES) | inhibition at 1 µM [%] | Inhibition (%)
CC(C)n1c(-c2ccc(F)cc2)c(/C=C/[C@@H](O)C[C@@H](O)CC(=O)O)c2ccccc2c1=O (relative stereo) [Example 2-2, Sodium [3R*,5S*(E)]-7-[1,2-dihydro-3-(4-fluorophenyl)-2-(1-methylethyl)-1-oxo-4-isoquinolinyl]-3,5-dihydroxy-6-heptenoate] | 91.2 | –
Cc1cc(F)ccc1-c1c(/C=C/[C@@H](O)C[C@@H](O)CC(=O)O)c2ccccc2c(=O)n1C(C)C (relative stereo) [Example 5-2] | 90.4 | –
CCCn1c(-c2ccc(F)cc2C)c(/C=C/[C@@H](O)C[C@@H](O)CC(=O)O)c2ccccc2c1=O (relative stereo) [Example 10-2] | 90.4 | –
COC(=O)C[C@H](O)C[C@H](O)/C=C/c1c(-c2ccc(F)cc2)n(CCc2ccccc2)c(=O)c2ccccc12 (relative stereo) [Example 13-1] | 89.6 | –
CCOC(=O)C[C@H](O)C[C@H](O)/C=C/c1c(-c2ccc(F)cc2)n(C)c(=O)c2ccccc12 (relative stereo) [Example 14-1] | 91.1 | –
Cn1c(-c2ccc(F)cc2)c(/C=C/[C@@H](O)C[C@@H](O)CC(=O)O)c2ccccc2c1=O (relative stereo) [Example 14-2] | 94 | –
CCn1c(-c2ccc(F)cc2)c(/C=C/[C@@H](O)C[C@@H](O)CC(=O)OC)c2ccccc2c1=O (relative stereo) [Example 15-1] | 94.2 | –
CCCn1c(-c2ccc(F)cc2)c(/C=C/[C@@H](O)C[C@@H](O)CC(=O)O)c2ccccc2c1=O (relative stereo) [Example 16-2] | 96.2 | –
CCCCn1c(-c2ccc(F)cc2)c(/C=C/[C@@H](O)C[C@@H](O)CC(=O)OC)c2ccccc2c1=O (relative stereo) [Example 17-1] | 93.4 | –
CCCCCn1c(-c2ccc(F)cc2)c(/C=C/[C@@H](O)C[C@@H](O)CC(=O)OC)c2ccccc2c1=O (relative stereo) [Example 18-1] | 90.7 | –
CC(C)Cn1c(-c2ccc(F)cc2)c(/C=C/[C@@H](O)C[C@@H](O)CC(=O)O)c2ccccc2c1=O (relative stereo) [Example 21-2] | 95 | –
O=C(O)C[C@H](O)C[C@H](O)/C=C/c1c(-c2ccc(F)cc2)n(Cc2ccccc2)c(=O)c2ccccc12 (relative stereo) [Example 24-2] | 89.6 | –
O=C(O)C[C@H](O)C[C@H](O)/C=C/c1c(-c2ccc(F)cc2)n(CCCc2ccccc2)c(=O)c2ccccc12 (relative stereo) [Example 32-2] | 89.6 | –
O=C(O)C[C@H](O)C[C@H](O)/C=C/c1c(-c2ccc(F)cc2)n(CCc2ccc(F)cc2)c(=O)c2ccccc12 (relative stereo) [Example 35-2] | 96.9 | –
Cc1ccc(CCn2c(-c3ccc(F)cc3)c(/C=C/[C@@H](O)C[C@@H](O)CC(=O)O)c3ccccc3c2=O)cc1 (relative stereo) [Example 36-2] | 93.2 | –
COc1ccc(CCn2c(-c3ccc(F)cc3)c(/C=C/[C@@H](O)C[C@@H](O)CC(=O)O)c3ccccc3c2=O)cc1 (relative stereo) [Example 37-2] | 96.2 | –
O=C(O)C[C@H](O)C[C@H](O)/C=C/c1c(-c2ccc(F)cc2)n(CCc2ccccc2F)c(=O)c2ccccc12 (relative stereo) [Example 40-2] | 92.6 | –
COCCn1c(-c2ccc(F)cc2)c(/C=C/[C@@H](O)C[C@@H](O)CC(=O)O)c2ccccc2c1=O (relative stereo) [Example 41-2] | 88.2 | –
CSCCn1c(-c2ccc(F)cc2)c(/C=C/[C@@H](O)C[C@@H](O)CC(=O)O)c2ccccc2c1=O (relative stereo) [Example 42-2] | 94.1 | –
C=CCn1c(-c2ccc(F)cc2)c(/C=C/[C@@H](O)C[C@@H](O)CC(=O)O)c2ccccc2c1=O (relative stereo) [Example 43-2] | 90.6 | –
CCCn1c(-c2ccc(F)cc2)c(/C=C/[C@@H](O)C[C@@H](O)CC(=O)O)c2c(c1=O)CCCC2 (relative stereo) [Example 48-2] | 96.6 | –
CCCn1c(-c2ccc(F)cc2)c(/C=C/[C@@H](O)C[C@@H](O)CC(=O)O)c2ccccc2c1=O [Example 49-2, Sodium [3R, 5S(E)]-7-[1,2-dihydro-3-(4-fluorophenyl)-2-propyl-1-oxo-4-isoquinolinyl]-3,5-dihydroxy-6-heptenoate] | 97.1 | –
CCCn1c(-c2ccc(F)cc2)c(/C=C/[C@@H]2C[C@@H](O)CC(=O)O2)c2ccccc2c1=O [Example 49-3] | 92.5 | –
CC[C@H](C)C(=O)O[C@H]1C[C@@H](C)C=C2C=C[C@H](C)[C@H](CC[C@@H]3C[C@@H](O)CC(=O)O3)[C@H]21 [Mevinolin, reference compound] | – | 75.5

Now from value to molecule, other results behind:

inhibition at 1 µM [%] | Structure (SMILES) | Inhibition (%)
92 | COc1cc(F)ccc1-c1c(/C=C/[C@@H](O)C[C@@H](O)CC(=O)O)c2ccccc2c(=O)n1C(C)C (relative stereo) [Example 1-2, Sodium [3R*,5S*(E)]-7-[1,2-dihydro-3-(4-fluoro-2-methoxyphenyl-2-(1-methylethyl)-1-oxo-4-isoquinolinyl]-3,5-dihydroxy-6-heptenoate] | –
90.9 | CCCn1c(-c2ccc(F)cc2F)c(/C=C/[C@@H](O)C[C@@H](O)CC(=O)O)c2ccccc2c1=O (relative stereo) [Example 11-2] | –
95.1 | O=C(O)C[C@H](O)C[C@H](O)/C=C/c1c(-c2ccc(F)cc2)n(CCc2ccccc2)c(=O)c2ccccc12 (relative stereo) [Example 13-2] | –
96.1 | CCn1c(-c2ccc(F)cc2)c(/C=C/[C@@H](O)C[C@@H](O)CC(=O)O)c2ccccc2c1=O (relative stereo) [Example 15-2] | –
94.2 | CCCn1c(-c2ccc(F)cc2)c(/C=C/[C@@H](O)C[C@@H](O)CC(=O)OCC)c2ccccc2c1=O (relative stereo) [Example 16-1] | –
95.8 | CCCCn1c(-c2ccc(F)cc2)c(/C=C/[C@@H](O)C[C@@H](O)CC(=O)O)c2ccccc2c1=O (relative stereo) [Example 17-2] | –
96.5 | CCCCCn1c(-c2ccc(F)cc2)c(/C=C/[C@@H](O)C[C@@H](O)CC(=O)O)c2ccccc2c1=O (relative stereo) [Example 18-2] | –
88 | CCCCCCCn1c(-c2ccc(F)cc2)c(/C=C/[C@@H](O)C[C@@H](O)CC(=O)O)c2ccccc2c1=O (relative stereo) [Example 19-2] | –
91.3 | COC(=O)C[C@H](O)C[C@H](O)/C=C/c1c(-c2ccc(F)cc2)n(CC(C)C)c(=O)c2ccccc12 (relative stereo) [Example 21-1] | –
95.7 | O=C(O)C[C@H](O)C[C@H](O)/C=C/c1c(-c2ccc(F)cc2)n(CCc2ccc(Cl)cc2)c(=O)c2ccccc12 (relative stereo) [Example 33-2] | –
95.9 | COc1ccccc1CCn1c(-c2ccc(F)cc2)c(/C=C/[C@@H](O)C[C@@H](O)CC(=O)O)c2ccccc2c1=O (relative stereo) [Example 38-2] | –
91.7 | O=C(O)C[C@H](O)C[C@H](O)/C=C/c1c(-c2ccc(F)cc2)n(CCc2cccc(F)c2)c(=O)c2ccccc12 (relative stereo) [Example 39-2] | –
93.3 | CC(C)n1c(-c2ccc(F)cc2)c(/C=C/[C@@H](O)C[C@@H](O)CC(=O)O)c2c(c1=O)CCCC2 (relative stereo) [Example 47-2] | –
